The IC50 is the concentration needed to halve the response being measured. The term CC50 denotes the concentration that lowers cell viability or growth by half.

SMILES strings stand for the structures. Where “and” joins values, the source holds several entries; their conditions need not be identical. Equal entries are not always repeated. Where two headings read alike, the source gives them in different places.

The results in this text go back to patent US11247973B2 (The University of Durham, priority 2016, dated 2022).

What all share (type): cell-based
In one data set the test system is RSV. As to the kind of experiment: Cytopathic effect (CPE) assay. Particulars: human respiratory syncytial virus, read-out: CPE IC50. From the text: (§1) Cells were obtained from ATCC and the virus preparation was subjected to one round of centrifugation through a 40% (V/V) glycerol to remove any interferon produced from infected cells. Growth medium was Dulbecco's modified Eagle's medium (DMEM) with 10% (v/v) foetal calf serum (FCS), Viral maintainance medium was DMEM+2% (v/v) FCS.
Cytopathic Effect (CPE) Assay—IC50:
(§2) A549 cells and HeLa cells were used to seed a set of 96 well plates grown until 50% confluent, a 2 fold serial dilution of the compound was performed on each cell line with DMSO (only) as control starting with 100 μM of the compound. Medium used was DMEM+2% FCS (normal medium for viral growth).
(§3) Cells were allowed to grow for 6-8 days to mimic a TCID50 assay after which cell viability was determined by adding Almar blur (similar to XT) and reading at 600 nm (excitation 540 nm).

A short description of data set [1]: Cell cytotoxicity CC50 assay (A549 and HeLa cells). Particulars: human, 6-8 days, DMEM+2% FCS.
From the text: as §1
Cell Cytotoxicity—CC50 (Concentration at which 50% Cell Toxicity is Observed):
as §2, §3

In another data set the test system is RSV A2 VR-1540. Description: Second plaque reduction assay (HEp-2 cells). Particulars: multiple values = multiple test occasions. An excerpt:
Cells were obtained from ATCC and the virus preparation was subjected to one round of centrifugation through a 40% (V/V) glycerol to remove any interferon produced from infected cells. Growth medium was Dulbecco's modified Eagle's medium (DMEM) with 10% (v/v) foetal calf serum (FCS), Viral maintenance medium was DMEM+2% (v/v) FCS.
The RSV plaque reduction assay is an infectivity assay which allows quantification of the number of infectious units in a distinct foci of RSV infection. This is indicated by zones of viral antigen detected by specific antibody staining within a monolayer of otherwise healthy tissue culture cells. As each plaque originates from a single infectious virus particle an accurate calculation of the anti-viral effect can be obtained by counting plaques in the presence and absence of an anti-viral compound. HEp-2 cells (ATCC, CCL23) were passaged in flasks and seeded in 96-well plates in DMEM containing antibiotics and supplemented with 10% FBS. During inoculation and subsequent incubation, cells were cultured in DMEM containing 3% FBS. 100 plaque forming unit (PFU)/well of RSV (RSV A2 VR-1540) was mixed with ten serial dilutions of compound. Subsequently, 100 μL of the virus/compound mixtures was added to confluent HEp-2 cell monolayers. The cells and virus/compound mixtures were incubated at 35° C. in a humidified 5% CO2 incubator for 1 day.
Cells were washed twice with PBS before adding 50% v/v EtOH/MeOH, and then stored at −20° C. On the day of the staining, fixative was first removed from the plates. Plates were washed 3× with PBS. A pre-titrated amount of the primary antibody was added in 60 μL PBS/2% milk powder, and plates incubated for 1 h at rt. The plates were washed 3× with PBS/0.05% Tween20 before addition of goat anti-mouse horse radish peroxidase in 60 μL PBS/2% milk powder, and incubated for 1 h at rt. Following three wash steps with PBS/0.05% Tween20, 60 μL ready-to-use TrueBlue was added and plates were incubated at rt for 10-15 min before adding MilliQ water. Plates were washed once with water, incubated for 30-60 min and after removal of water, air-dried in the dark.
Plates were scanned and analyzed using the Immunospot S6 UV analyzer, which is equipped with BioSpot analysis software for counting immunostained plaques (virospots). Plaque counts were used to calculate % infection relative to the mean of the spot count (SC) in the virus control wells for RSV. IC50/IC90 values were calculated as 50% or 90% reduction in signal, respectively, by interpolation of inhibition curves fitted with a 4-parameter nonlinear regression with a variable slope in GraphPad 5.0 (Prism).
Background: Plaque reduction counts the foci of infection that form in a cell layer.

The subject of the next data set is HepG2 cells. Description: Cell cytotoxicity CC50, HepG2 cells (CellTox Green). Particulars: 48-hour incubation, multiple values = multiple test occasions, read-out: Tox CC50. Here is the method:
(§4) HepG2 cells, in media supplemented with 10% fetal bovine serum (FBS), were seeded at […] into white walled 96 well plates and incubated at 37° C., 5% CO2. Twenty-four hours post seeding media was removed and replaced with media supplemented with 2% FBS and containing final compound concentrations equal to those tested in parallel virus plaque assays. Following a further 48-hour incubation cell cytotoxicity was determined using the CellTox™ Green (Promega) kit and […] read using an appropriate protocol on a GloMax® Explorer System (Promega). During analysis DMSO containing wells were used as a negative control and lysed cells as a positive control.

Assay in data set [2]: as above
Particulars: human, 48-hour incubation, multiple values = multiple test occasions, read-out: Tox CC50. As for the experimental part: as §4

[3] abbreviates: human respiratory syncytial virus, HEp-2, 24 h, read-out: Plaque IC50, HEp-2 cells, RSV A2, 1 day.
[4] abbreviates: read-out: Plaque IC50, HEp-2 cells, RSV A2, 1 day.

`O=C(CNc1ccccc1)N[C@H]1N=C(c2ccccc2)c2ccccc2NC1=O` [Compound 1, N-{(3S)-2-oxo-5-phenyl-2,3-dihydro-1H-1,4-benzodiazepin-3-yl](phenylamino)acetamide]: the IC50 in the data set on RSV (A549 cells and HeLa cells, 6-8 days, DMEM+2% FCS) amounted to 2.5 µM. The molecule further returned a CC50 in data set [1] of 25 µM.
In the case of `CCOc1nc(F)c(F)c(NCC(=O)N[C@H]2N=C(c3ccccc3)c3ccccc3NC2=O)c1F` [Compound 4, 2-[(2-ethoxy-3,5,6-trifluoropyridin-4-yl)amino]-N-{(3S)-2-oxo-5-phenyl-2,3-dihydro-1H-1,4-benzodiazepin-3-yl]acetamide], the IC50 with RSV amounted to 2.5 µM. The molecule further returned a CC50 in data set [1] of more than 100 µM.
Regarding `O=C1Nc2ccccc2C(c2ccccc2)=N[C@@H]1NC(=O)[C@H]1CCCN1c1c(F)c(F)nc(F)c1F` [Compound 6, N(2R)-N-[(3S)-2-oxo-5-phenyl-2,3-dihydro-1H-1,4-benzomazepin-3-yl]-1-(2,3,5,6-tetrafluoropyridin-4-yl)pyrrolidine-2-carboxamide], the IC50 in the data set on RSV A2 VR-1540 (HEp-2 cells, RSV A2, 1 day, read-out: Plaque IC50) was 4.39 µM and 8.33 µM. Further, the CC50 with HepG2 cells is more than 25 µM.
Consider `CC(C)[C@H](Nc1c(F)c(F)nc(F)c1F)C(=O)N[C@H]1N=C(c2ccccc2)c2ccccc2NC1=O` [Compound 7, (2S)-3-Methyl-N-[(3S)-2-oxo-5-phenyl-2,3-dihydro-1H-1,4-benzodiazepin-3-yl]-2-[(2,3,5,6-tetrafluoropyridin-4-yl)amino]butanamide], for which the IC50 is 5.18 µM in the data set with RSV A2 VR-1540 (setting [3]); 8.68 µM and 10 µM in the data set on RSV A2 VR-1540 (setting [4]). The CC50 at 48 h in data set [2] came to 16 µM. The CC50 in the data set on HepG2 cells was more than 25 µM.
Consider `CC(C)[C@@H](Nc1c(F)c(F)nc(F)c1F)C(=O)N[C@H]1N=C(c2ccccc2)c2ccccc2NC1=O` [Compound 8, (2R)-3-Methyl-N-[(3S)-2-oxo-5-phenyl-2,3-dihydro-1H-1,4-benzodiazepin-3-yl]-2-[(2,3,5,6-tetrafluoropyridin-4-yl)amino]butanamide], for which the CC50 at 48 h in data set [2] is more than 25 µM. Besides, in the data set on HepG2 cells, the CC50 is 16.3 µM.
With `C[C@H](Nc1c(F)c(F)nc(F)c1F)C(=O)N[C@H]1N=C(c2ccccc2)c2ccccc2NC1=O` [Compound 9, (2S)-N-[(3S)-2-oxo-5-phenyl-1,3-dihydro-1,4-benzodiazepin-3-yl]-2-[(2,3,5,6-tetrafluoropyridin-4-yl)amino]propanamide], the IC50 with RSV A2 VR-1540 (setting [3]) amounted to 5.22 µM; in the data set with RSV A2 VR-1540 (setting [4]) it was 3.76 µM. Besides, in data set [2], the CC50 at 48 h is more than 25 µM.
Take `C[C@@H](Nc1c(F)c(F)nc(F)c1F)C(=O)N[C@H]1N=C(c2ccccc2)c2ccccc2NC1=O` [Compound 10, (2R)-N-[(3S)-2-oxo-5-phenyl-1,3-dihydro-1,4-benzodiazepin-3-yl]-2-[(2,3,5,6-tetrafluoropyridin-4-yl)amino]propanamide]: the IC50 in the data set on RSV A2 VR-1540 (setting [3]) came out at 3.38 µM; in the data set with RSV A2 VR-1540 (setting [4]), 1.79 µM. For the same molecule, the CC50 at 48 h in data set [2] was more than 25 µM.
As for `O=C(N[C@H]1N=C(c2ccccc2)c2ccccc2NC1=O)[C@H](Cc1ccccc1)Nc1c(F)c(F)nc(F)c1F` [Compound 11], the CC50 with HepG2 cells was more than 25 µM.
Consider `O=C(CNc1nc(F)c(F)c(N2CCOCC2)c1F)N[C@H]1N=C(c2ccccc2)c2ccccc2NC1=O` [Compound 14, N-[(3S)-2-oxo-5-phenyl-2,3-dihydro-1H-1,4-benzodiazepin-3-yl]-2-{[3,5,6-trifluoro-4-(morpholin-4-yl)pyridin-2-yl]amino}acetamide], for which the CC50 at 48 h in data set [2] is more than 25 µM.
Regarding `O=C(CNc1cc(Cl)ncn1)N[C@H]1N=C(c2ccccc2)c2ccccc2NC1=O` [Compound 18, 2-[(6-Chloropyrimidin-4-yl)amino]-N-[(3S)-2-oxo-5-phenyl-2,3-dihydro-1H-1,4-benzodiazepin-3-yl]acetamide], the IC50 in the data set on RSV A2 VR-1540 (setting [3]) stood at 4.93 µM; in the data set on RSV A2 VR-1540 (setting [4]), 9.33 µM. The CC50 at 48 h in data set [2] was more than 25 µM.
